# Experimental data: US20250360145A1, “CSF-1R INHIBITORS AND USES THEREOF” (Myrobalan Therapeutics, Inc., priority 2022, published 2025)
# Like-named read-outs stand apart in the source and are kept apart here.
# Assays:
# CSF-1R = CSF-1R (Homo sapiens (Human), UniProt P07333); assay: Biochemical HTRF kinase assay, CSF-1R; conditions: recombinant human CSF-1R;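 further: enzyme incubated with inhibitor plus a substrate and ATP mix for one hour at room temperature before HTRF detection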
# [1] = test system: Ba/F3_CSF-1R (stably expressing human CSF-1R kinase); assay: Cell proliferation assay, Ba/F3_CSF-1R; format: cell-based; conditions: BaF3, 72 h
# [2] = test system: human iPSC-derived microglia (hiPSC-MG); assay: hiPSC-MG survival (Presto-Blue viability); format: cell-based; conditions: 48 h treatment
# [3] = In vivo PK study (plasma and brain exposure); design: species or system CD1 mouse; conditions: for Kp uu / half-life / AUC(0-t) / AUC(0-inf) / clearance / Vd / bioavailability / Cmax / Tmax: male; for Kp uu: CD1, brain, BBB penetration; for half-life: CD1, mouse; for clearance: read-out: IV-2mpk CL (converted); for Vd: read-out: IV-2mpk VSS; for bioavailability: p.o. 45 mg/kg vs i.v. 2 mg/kg; for Cmax: read-out: PO-45mpk Cmax; for Tmax: read-out: PO-45mpk Tmax
# Description: The PK profiles were determined in CD1 mouse, and all the procedures and protocols were in accordance with the National Institutes of Health Guide for the Care and Use of Laboratory Animals. The CD1 mouse were purchased from JH Laboratory Animal Co. LTD. The CD1 mouse (23-30 g, 6-8 weeks, male) were randomized and divided into five groups consisting of 21 mouse per group. The test compounds that have been formulated were subjected to PK studies. The test compounds were administrated via p.o. at 45 mg/kg and i.v. at 2 mg/kg. […] The blood samples were placed on wet ice, and serum was collected after centrifugation. Serum samples were frozen and stored at −70° C. The brain samples were dried on filtrate paper, and snap frozen on dry ice and further stored at −70° C. Then, the blood samples and brain samples were further analyzed by LC-MS/MS (Triple Quad 6500+).
# PDGFRβ = PDGFRβ (Homo sapiens (Human), UniProt P09619); assay: Biochemical HTRF kinase assay, PDGFRβ; conditions: for IC50: recombinant human protein, read-out: PDGFR-1β IC50; for PDGFR-1β Fold: selectivity: IC50 of PDGFR-1β as multiple of IC50 of CSF-1R;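 on all read-outs here: kinase reaction with substrate/ATP mix run 1 h at room temperature in 384-well format, HTRF signal detection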
# c-Kit = c-Kit (Homo sapiens (Human), UniProt P10721); assay: Biochemical HTRF kinase assay, c-Kit; conditions: for IC50: recombinant human protein, read-out: cKit IC50; for cKit Fold: selectivity: IC50 of cKit as multiple of IC50 of CSF-1R;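 on all read-outs here: enzyme reaction with substrate and ATP run in 384-well plates for 1 hour at room temperature, kinase activity detected by HTRF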
# [4] = Brain protein binding study; format: in vitro ADME; conditions: mouse brain homogenate, equilibrium dialysis 4 hours
# Description: On the day of experiment, brain homogenate was thawed in water bath at room temperature and then incubated at 37° C. for 10 min before use. Pretreat the dialysis membrane according to the manufacturer's instructions: the dialysis membrane strips were soaked in ultra pure water at room temperature for approximately 1 hr. After that, each membrane strip that contains 2 membranes was separated and soaked in ethanol:water (20:80 v:v) for approximately 20 min, after which it was ready for use or was stored in the solution at 2-8° C. for up to 1 month. Prior to the experiment, the membrane was rinsed and soaked for 20 min in ultra pure water for use. Then working solutions (400 μM) of test compound and control compound were prepared. Aliquots of working solutions (3 μL) were spiked into blank matrix (597 μL) to achieve final concentrations and mixed thoroughly. Aliquots of 50 μL loading matrix containing test compound or control compound in triplicate was transferred to Sample Collection Plate, respectively. The samples were matched with opposite blank buffer to obtain a final volume of 100 μL with a volume ratio of matrix:Dialysis Buffer (1:1, v:v) in each well immediately. The stop solution was added to these T0 samples of test compound and control compound. The plate was sealed and shaked at 800 rpm for 10 min. Then these T0 samples were stored at 2-8° C. pending further process along with other post-dialysis samples. The dialysis instrument was assembled following manufacture's instructions. An aliquot of 100 μL of the loading matrix containing test compound or control compound was transferred to the donor side of each dialysis well in triplicate and 100 μL of the Dialysis Buffer was loaded to the receiver side of the well. Then the plate was rotated at approximately 100 rpm in a humidified incubator with 5% CO2 at 37±1° C. for 4 hours. At the end of the dialysis, aliquots of 50 μL samples from the buffer side and matrix side of the dialysis device were taken into new 96-well plates (Sample Collection Plates). An equal volume of opposite blank matrix (buffer or matrix) in each sample was added to reach a final volume of 100 μL with volume ratio of matrix:Dialysis Buffer at 1:1 (v:v) in each well. All samples were further processed by protein precipitation for LC/MS/MS analysis.
# FLT3 = FLT3 (Homo sapiens (Human), UniProt P36888); assay: Biochemical HTRF kinase assay, FLT3; conditions: for IC50: recombinant human protein; for FLT3 Fold: selectivity: IC50 of FLT3 as multiple of IC50 of CSF-1R
# primary rat microglia = assay: Primary rat microglia survival; format: cell-based; conditions: 3 days of exposure, Iba1 staining
# Source text: To assess the potency of CSF1R inhibitors disclosed herein we isolated and expanded primary brain glia from rat cortices in-vitro. This glial culture is about 20% microglia that is supported mostly by astrocytes that make up the rest of the population. The brain glia was exposed to CSF1R inhibitors for 3 days followed by paraformaldehyde fixation and immunofluorescence staining for the microglia marker, Iba1. The glial was imaged using a high-content-imager and the changes in microglia content were quantified. Using GraphPad Prism, a four-parameter logistic regression was applied to determine the potency of the CSF1R inhibitors.
# EOC2 cell = assay: Cell proliferation assay, EOC2; format: cell-based, mouse; conditions: Mus musculus, 72 h
# [5] = serum, iv, 2 mg/kg, CD1 mouse, i.v. 2 mg/kg, read-out: IV-2mpk T1/2 (converted)
# [6] = serum, po, 45 mg/kg, CD1 mouse, p.o. 45 mg/kg, read-out: PO-45mpk T1/2 (converted)
# [7] = CD1, po, mouse, p.o. 45 mg/kg, brain, read-out: PO-45mpk AUClast-brain
# [8] = CD1, po, mouse, p.o. 45 mg/kg, plasma, Tables 7 and 8, read-out: PO-45mpk AUClast-plasma
# [9] = serum, iv, CD1 mouse, i.v. 2 mg/kg, read-out: IV-2mpk AUCInf
# [10] = serum, iv, CD1 mouse, i.v. 2 mg/kg, read-out: IV-2mpk AUClast
# [11] = serum, iv, CD1 mouse, i.v. 2 mg/kg
# [12] = serum, po, CD1 mouse, p.o. 45 mg/kg, Tables 5 and 6, read-out: PO-45mpk AUClast
# [13] = serum, po, CD1 mouse, p.o. 45 mg/kg, read-out: PO-45mpk AUCInf
# [14] = serum, po, CD1 mouse, p.o. 45 mg/kg
# Chain of FLT3 (P36888 27-993): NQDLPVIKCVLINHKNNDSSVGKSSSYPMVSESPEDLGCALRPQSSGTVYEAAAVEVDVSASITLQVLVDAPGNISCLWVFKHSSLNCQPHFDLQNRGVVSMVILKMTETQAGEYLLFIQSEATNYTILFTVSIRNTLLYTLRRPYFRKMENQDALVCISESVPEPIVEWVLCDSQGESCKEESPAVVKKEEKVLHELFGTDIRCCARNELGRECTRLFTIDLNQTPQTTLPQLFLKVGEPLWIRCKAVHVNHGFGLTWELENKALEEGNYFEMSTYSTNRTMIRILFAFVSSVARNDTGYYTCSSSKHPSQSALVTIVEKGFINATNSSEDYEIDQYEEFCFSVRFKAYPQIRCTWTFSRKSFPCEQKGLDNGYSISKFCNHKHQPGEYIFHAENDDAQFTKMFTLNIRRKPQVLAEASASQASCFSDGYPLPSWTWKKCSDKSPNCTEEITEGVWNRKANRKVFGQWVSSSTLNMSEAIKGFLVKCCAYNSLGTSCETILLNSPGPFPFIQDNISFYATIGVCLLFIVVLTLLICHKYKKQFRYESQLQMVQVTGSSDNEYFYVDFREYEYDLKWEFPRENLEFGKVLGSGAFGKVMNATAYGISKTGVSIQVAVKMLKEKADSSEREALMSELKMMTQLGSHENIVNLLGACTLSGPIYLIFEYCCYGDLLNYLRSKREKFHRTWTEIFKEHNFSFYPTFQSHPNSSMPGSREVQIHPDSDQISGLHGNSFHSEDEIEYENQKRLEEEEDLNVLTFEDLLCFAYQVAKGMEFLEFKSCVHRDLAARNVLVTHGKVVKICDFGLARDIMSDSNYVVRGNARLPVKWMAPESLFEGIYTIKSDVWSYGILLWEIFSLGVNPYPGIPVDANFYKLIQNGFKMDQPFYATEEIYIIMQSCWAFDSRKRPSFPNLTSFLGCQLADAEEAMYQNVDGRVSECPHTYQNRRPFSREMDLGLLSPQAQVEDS
# Chain of c-Kit (P10721 26-976): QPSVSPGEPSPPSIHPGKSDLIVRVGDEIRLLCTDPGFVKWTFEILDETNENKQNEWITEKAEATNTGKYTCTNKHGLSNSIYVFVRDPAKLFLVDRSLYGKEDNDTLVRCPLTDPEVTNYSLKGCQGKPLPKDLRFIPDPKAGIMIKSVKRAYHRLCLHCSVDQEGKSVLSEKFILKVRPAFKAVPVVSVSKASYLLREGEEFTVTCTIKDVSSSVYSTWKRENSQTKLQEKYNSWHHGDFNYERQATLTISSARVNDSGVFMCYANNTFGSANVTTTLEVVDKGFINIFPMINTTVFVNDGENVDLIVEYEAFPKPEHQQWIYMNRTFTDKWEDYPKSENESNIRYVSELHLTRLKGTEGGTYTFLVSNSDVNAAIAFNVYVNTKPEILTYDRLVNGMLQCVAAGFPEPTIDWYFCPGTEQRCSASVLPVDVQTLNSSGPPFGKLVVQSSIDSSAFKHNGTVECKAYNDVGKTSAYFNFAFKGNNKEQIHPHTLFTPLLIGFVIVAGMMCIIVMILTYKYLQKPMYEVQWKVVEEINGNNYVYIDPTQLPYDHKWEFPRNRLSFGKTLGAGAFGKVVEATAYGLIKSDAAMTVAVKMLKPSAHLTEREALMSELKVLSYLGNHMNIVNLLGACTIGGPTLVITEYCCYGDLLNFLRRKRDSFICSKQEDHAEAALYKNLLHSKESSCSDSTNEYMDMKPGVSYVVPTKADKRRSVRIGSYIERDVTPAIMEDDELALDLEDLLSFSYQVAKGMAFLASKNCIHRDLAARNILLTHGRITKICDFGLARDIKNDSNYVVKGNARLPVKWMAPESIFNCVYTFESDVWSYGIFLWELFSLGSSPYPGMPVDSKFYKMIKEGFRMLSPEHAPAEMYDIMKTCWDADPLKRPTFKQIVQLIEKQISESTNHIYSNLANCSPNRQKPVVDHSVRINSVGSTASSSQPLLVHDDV
# Chain of CSF-1R (P07333 20-972): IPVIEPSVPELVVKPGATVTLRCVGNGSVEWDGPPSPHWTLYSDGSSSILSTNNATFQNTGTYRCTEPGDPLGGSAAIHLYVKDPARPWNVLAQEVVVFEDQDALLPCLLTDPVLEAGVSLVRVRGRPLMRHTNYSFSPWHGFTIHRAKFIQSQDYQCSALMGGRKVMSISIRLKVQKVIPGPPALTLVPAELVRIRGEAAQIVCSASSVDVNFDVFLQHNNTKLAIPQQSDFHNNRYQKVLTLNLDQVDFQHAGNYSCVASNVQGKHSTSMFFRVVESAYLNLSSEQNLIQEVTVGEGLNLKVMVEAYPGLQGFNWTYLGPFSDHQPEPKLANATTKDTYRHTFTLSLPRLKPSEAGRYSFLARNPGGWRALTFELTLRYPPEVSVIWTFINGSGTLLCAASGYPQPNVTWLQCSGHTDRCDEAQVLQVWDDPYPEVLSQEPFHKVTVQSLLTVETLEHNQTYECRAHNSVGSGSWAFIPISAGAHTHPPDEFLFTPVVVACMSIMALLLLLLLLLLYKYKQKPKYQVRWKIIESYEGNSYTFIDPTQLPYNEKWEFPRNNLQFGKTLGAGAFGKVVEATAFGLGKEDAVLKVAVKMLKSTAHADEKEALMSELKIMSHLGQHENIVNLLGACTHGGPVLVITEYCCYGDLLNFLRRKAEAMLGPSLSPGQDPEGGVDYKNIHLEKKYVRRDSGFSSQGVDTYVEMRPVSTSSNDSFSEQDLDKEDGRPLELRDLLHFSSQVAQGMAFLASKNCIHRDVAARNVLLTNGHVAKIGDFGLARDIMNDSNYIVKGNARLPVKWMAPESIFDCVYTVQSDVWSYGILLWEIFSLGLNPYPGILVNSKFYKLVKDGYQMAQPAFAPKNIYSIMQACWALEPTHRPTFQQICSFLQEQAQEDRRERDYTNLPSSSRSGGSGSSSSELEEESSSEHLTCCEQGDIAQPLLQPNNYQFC
# Chain of PDGFRβ (P09619 33-1106): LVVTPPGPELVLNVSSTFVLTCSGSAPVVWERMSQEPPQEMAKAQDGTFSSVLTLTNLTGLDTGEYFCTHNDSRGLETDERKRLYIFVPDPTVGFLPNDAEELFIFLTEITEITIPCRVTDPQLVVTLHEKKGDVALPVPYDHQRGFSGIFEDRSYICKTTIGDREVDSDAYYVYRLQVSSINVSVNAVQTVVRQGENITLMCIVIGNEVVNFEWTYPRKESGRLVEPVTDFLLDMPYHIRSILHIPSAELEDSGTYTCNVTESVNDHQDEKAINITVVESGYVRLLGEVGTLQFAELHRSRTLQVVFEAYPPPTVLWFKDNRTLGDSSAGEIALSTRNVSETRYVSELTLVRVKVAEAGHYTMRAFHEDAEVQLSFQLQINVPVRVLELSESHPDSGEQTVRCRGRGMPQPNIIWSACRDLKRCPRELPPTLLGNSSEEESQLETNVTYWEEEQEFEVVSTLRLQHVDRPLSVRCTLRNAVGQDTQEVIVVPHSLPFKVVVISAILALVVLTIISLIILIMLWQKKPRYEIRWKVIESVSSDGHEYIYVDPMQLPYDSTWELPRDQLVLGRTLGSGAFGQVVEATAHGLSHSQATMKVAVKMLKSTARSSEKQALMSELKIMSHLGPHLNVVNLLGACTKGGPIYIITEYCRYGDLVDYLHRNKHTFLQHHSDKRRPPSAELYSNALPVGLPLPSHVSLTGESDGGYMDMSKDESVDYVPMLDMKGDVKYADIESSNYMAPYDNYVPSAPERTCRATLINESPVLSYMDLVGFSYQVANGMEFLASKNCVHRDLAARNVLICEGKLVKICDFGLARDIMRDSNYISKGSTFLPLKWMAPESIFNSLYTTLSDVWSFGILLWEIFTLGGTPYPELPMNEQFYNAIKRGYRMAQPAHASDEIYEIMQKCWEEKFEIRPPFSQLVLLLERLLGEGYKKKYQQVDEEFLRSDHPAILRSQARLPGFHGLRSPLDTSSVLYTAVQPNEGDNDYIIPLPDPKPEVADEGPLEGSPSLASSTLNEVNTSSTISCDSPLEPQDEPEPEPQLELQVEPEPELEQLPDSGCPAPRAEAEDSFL
Structure (SMILES),IC50 (CSF-1R; Table 2),IC50 (CSF-1R; Table 3),hiPSC-MG survival IC50 compared with BLZ945 [2],"IV-2mpk T1/2 ([3]; CD1 mouse, i.v. 2 mg/kg)","Kp uu ([3]; po, mouse, p.o. 45 mg/kg)","half-life [3, 5]","half-life [3, 6]","AUC(0-t) [3, 7]","AUC(0-t) [3, 8]","AUC(0-inf) [3, 9]","AUC(0-t) [3, 10]","clearance [3, 11]","Vd [3, 11]","bioavailability ([3]; serum, po, CD1 mouse)","AUC(0-t) [3, 12]","AUC(0-inf) [3, 13]","Cmax [3, 14]","Tmax [3, 14]",IC50 (PDGFRβ),PDGFR-1β Fold (PDGFRβ),other results
"COc1ccc(COc2ncc(Cc3ccnc4cc(OC)cnc34)cc2OC)nc1 [Example 16, 3-methoxy-8-((5-methoxy-6-((5-methoxypyridin-2-yl)methoxy)pyridin-3-yl)methyl)-1,5-naphthyridine]",2.1 nM,2.1 nM,lower than that of BLZ945,2.52 h,1.1,151 min,114 min,76.8 µg·h/mL,210 µg·h/mL,4.46 µg·h/mL,4.46 µg·h/mL,7.47 mL/min/kg,0.955 L/kg,215%,216 µg·h/mL,216 µg·h/mL,31.4 µg/mL,60 min,> 1000 nM,>100 fold,"EC50 ([1]; Ba/F3_CSF-1R cells, 72 hours treatment, read-out: CSF-1R BaF3 EC50): 61.7 nM; IC50 ([2]; Homo sapiens, Microglia): 31.5 nM; IV-2mpk CL ([3]; CD1 mouse, i.v. 2 mg/kg): 0.448 L/h/kg; IC50 (c-Kit): 881 nM; cKit Fold (c-Kit): >100 fold; BPB-mouse (Bound) (%) [4]: 98.10%; IC50 (FLT3): > 1000 nM; FLT3 Fold (FLT3): >100 fold; primary rat microglia survival (primary rat microglia): dose-dependent inhibition of primary rat microglia survival; EC50 (EOC2 cell; EOC2 cells, 72 hours treatment, read-out: ECO2 EC50): 39.2 nM"
"COc1cnc2c(Cc3cnc(OCc4cc5n(n4)CCOC5)c(OC)c3)ccnc2c1 [Example 73, 2-(((3-methoxy-5-((7-methoxy-1,5-naphthyridin-4-yl)methyl)pyridin-2-yl)oxy)methyl)-6,7-dihydro-4H-pyrazolo[5,1-c][1,4]oxazine]",3.3 nM,3.3 nM,lower than that of BLZ945,2.56 h,0.67,151 min,94.2 min,31.8 µg·h/mL,214 µg·h/mL,9.09 µg·h/mL,9.09 µg·h/mL,3.67 mL/min/kg,0.461 L/kg,98.8%,202 µg·h/mL,202 µg·h/mL,100 µg/mL,30 min,> 1000 nM,>100 fold,EC50 ([1]; read-out: CSF-1R BaF3 EC50 (nM)): 73.1 nM; hiPSC-MG survival ([2]; FIG. 7B): dose-dependent inhibition of hiPSC-MG survival; IC50 (c-Kit): > 1000 nM; cKit Fold (c-Kit): >100 fold; BPB-mouse (Bound) (%) [4]: 95.5%; IC50 (FLT3): > 1000 nM; FLT3 Fold (FLT3): >100 fold; primary rat microglia survival (primary rat microglia): dose-dependent inhibition of primary rat microglia survival; EC50 (EOC2 cell; read-out: ECO2 EC50 (nM)): 47.5 nM
